Earlier results in patent publication US20240390265A1, “FORMULATIONS FOR TRANSDERMAL ADMINISTRATION OF ACTIVE AGENTS” (DYVE BIOSCIENCES, INC., priority 2022, published 2024).
Each block holds one compound with its values, some of them ahead of it.

Legend:
[1] = target: T1, BRAF (Homo sapiens, UniProt P15056)
Target sequence in this assay (P15056 whole entry): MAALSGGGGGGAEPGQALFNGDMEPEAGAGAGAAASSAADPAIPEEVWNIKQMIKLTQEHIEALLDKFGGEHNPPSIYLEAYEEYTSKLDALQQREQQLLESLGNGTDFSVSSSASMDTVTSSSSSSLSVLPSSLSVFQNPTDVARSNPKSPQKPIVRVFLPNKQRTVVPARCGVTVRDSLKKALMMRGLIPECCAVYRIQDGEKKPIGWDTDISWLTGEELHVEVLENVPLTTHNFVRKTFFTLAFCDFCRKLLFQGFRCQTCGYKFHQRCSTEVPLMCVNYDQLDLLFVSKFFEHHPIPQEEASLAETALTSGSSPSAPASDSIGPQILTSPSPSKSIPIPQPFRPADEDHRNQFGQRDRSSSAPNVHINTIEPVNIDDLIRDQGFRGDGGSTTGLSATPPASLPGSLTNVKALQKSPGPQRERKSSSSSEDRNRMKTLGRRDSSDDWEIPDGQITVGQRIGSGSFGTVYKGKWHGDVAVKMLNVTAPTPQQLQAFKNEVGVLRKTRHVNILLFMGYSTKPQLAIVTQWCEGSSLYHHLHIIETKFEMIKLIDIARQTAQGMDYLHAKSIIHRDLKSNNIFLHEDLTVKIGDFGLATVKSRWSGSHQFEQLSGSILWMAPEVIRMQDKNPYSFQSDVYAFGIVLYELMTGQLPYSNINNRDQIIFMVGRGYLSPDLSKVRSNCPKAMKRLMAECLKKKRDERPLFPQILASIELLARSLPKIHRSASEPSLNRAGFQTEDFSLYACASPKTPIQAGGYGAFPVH

[2] = in vivo
[3] = tested on: cell line and primary human tumor derived xenograft models; conditions: at well-tolerated doses
[4] = tested on: panel of 456 human kinases
[5] = target: CRAF (Homo sapiens, UniProt P04049)
[6] = tested on: KRAS G12D mutant tumor cells
[7] = tested on: tumor models harboring KRAS G12D mutations
[8] = target: T1, BRAF; conditions: read-out: IC50 (B-Raf inhibitor)
Target sequence in this assay (P15056 2-766 limits assumed): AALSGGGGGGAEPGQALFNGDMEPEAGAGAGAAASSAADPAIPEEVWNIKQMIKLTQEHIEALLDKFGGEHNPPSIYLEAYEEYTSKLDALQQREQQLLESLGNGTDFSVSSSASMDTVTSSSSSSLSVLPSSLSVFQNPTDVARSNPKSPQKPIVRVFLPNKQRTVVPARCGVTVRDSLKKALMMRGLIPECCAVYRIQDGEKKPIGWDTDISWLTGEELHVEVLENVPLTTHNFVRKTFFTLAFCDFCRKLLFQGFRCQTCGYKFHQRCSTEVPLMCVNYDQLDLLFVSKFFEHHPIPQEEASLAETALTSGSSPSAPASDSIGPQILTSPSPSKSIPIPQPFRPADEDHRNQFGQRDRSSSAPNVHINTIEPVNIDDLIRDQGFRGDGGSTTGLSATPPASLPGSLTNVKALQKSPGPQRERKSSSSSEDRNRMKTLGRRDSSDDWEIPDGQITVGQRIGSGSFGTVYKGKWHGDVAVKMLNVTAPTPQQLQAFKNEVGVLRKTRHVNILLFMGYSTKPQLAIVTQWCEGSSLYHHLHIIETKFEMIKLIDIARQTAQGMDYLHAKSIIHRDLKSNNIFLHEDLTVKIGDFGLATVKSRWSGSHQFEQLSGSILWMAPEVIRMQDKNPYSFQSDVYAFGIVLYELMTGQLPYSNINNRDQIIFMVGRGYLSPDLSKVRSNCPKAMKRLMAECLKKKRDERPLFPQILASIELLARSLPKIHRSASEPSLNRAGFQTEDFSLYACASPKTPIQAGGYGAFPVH

Chain of CRAF (P04049 whole entry): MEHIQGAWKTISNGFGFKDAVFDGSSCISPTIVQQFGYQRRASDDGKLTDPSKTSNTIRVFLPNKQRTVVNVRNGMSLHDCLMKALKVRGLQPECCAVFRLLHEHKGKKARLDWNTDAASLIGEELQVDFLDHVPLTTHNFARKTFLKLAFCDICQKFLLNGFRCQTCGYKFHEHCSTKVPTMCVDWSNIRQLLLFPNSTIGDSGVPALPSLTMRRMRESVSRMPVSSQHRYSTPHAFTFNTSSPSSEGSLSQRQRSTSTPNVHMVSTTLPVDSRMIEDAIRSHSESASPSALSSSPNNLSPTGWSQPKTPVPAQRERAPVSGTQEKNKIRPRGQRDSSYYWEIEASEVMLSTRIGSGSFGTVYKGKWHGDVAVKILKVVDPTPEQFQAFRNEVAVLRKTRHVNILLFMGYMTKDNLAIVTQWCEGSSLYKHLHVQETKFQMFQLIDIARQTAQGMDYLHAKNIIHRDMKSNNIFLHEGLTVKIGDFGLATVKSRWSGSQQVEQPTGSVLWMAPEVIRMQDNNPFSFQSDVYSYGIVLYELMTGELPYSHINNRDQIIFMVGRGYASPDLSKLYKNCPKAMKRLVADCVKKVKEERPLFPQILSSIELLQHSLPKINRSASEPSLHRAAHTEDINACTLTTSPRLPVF

concentrations inhibiting BRAF kinase activity [1]: picomolar | oral bioavailability [2]: orally bioavailable | concentrations inhibiting CRAF kinase activity [5]: picomolar
Compound: Cc1ccc(NC(=O)c2ccnc(C(F)(F)F)c2)cc1-c1cc(OCCO)nc(N2CCOCC2)c1 [Naporafenib]
effect on tumors in xenograft models [3]: tumor regression | selectivity against a panel of 456 human kinases [4]: high degree of selectivity

Compound: C#Cc1c(F)ccc2cc(O)cc(-c3ncc4c(N5CC6CCC(C5)N6)nc(OC[C@@]56CCCN5C[C@H](F)C6)nc4c3F)c12 [MRTX1133]
activity in cellular assays [6]: single digit nanomolar | in vivo efficacy in tumor models harboring KRAS G12D mutations [7]: marked in vivo efficacy

IC50 [8]: 11.7 nM
Compound: Cc1ccc2c(Nc3cccc(OC(F)(F)F)c3)nccc2c1Nc1ncccc1-c1ncnc2nc[nH]c12 [LUT014, 6-methyl-5-N-[3-(7H-purin-6-yl)pyridin-2-yl]-1-N-[3-(trifluoromethoxy)phenyl]isoquinoline-1,5-diamine]
